Measurements taken from ChEMBL document CHEMBL5365447, “Pronucleotides of 2',3'-Dideoxy-2',3'-Didehydrothymidine as Potent Anti-HIV Compounds” (J Med Chem, 2023).
The source made the active and inactive calls. The calls are words filed in the database; no cut-off is given here.

Key:
[1] = Selectivity index, ratio of CC50 for human CEM cells to EC50 for HIV-2 ROD infected in thymidine kinase-deficient human CEM cells; format: toxicity; details: read-out: Ratio CC50/EC50
[2] = system: Human immunodeficiency virus 2; experiment: Potency index, ratio of 3'-deoxy-2',3'-dehydrothymidine EC50 to compound EC50 for antiviral activity against HIV-2 ROD infected in thymidine kinase-deficient human CEM[…] cells; format: functional
[3] = Chemical stability of the compound in phosphate buffer assessed as half life at pH 7.3 by HPLC analysis; format: physicochemical
[4] = Prodrug conversion in human CEM/0 cell extract assessed as ((2S,5R)-5-(5-methyl-2,4-dioxo-3,4-dihydropyrimidin-1(2H)-yl)-2,5-dihydrofuran-2-yl)methyl tri-hydrogen diphosphate formation by HPLC analysis; format: ADME; details: ccrf-cem
[5] = system: Human immunodeficiency virus 1; experiment: Potency index, ratio of 3'-deoxy-2',3'-dehydrothymidine EC50 to compound EC50 for antiviral activity against HIV-1 HE infected in wild-type human CEM/0 cells; format: functional
[6] = Prodrug conversion in human CEM/0 cell extract assessed as metabolite formation by measuring half life by HPLC analysis; format: ADME; details: ccrf-cem
[7] = system: Human immunodeficiency virus 2; experiment: Antiviral activity against HIV-2 ROD infected in wild-type human CEM/0 cells assessed as inhibition of virus-induced cytopathic effect incubated for 4 to 5 days by light microscopic analysis; format: functional, organism-based; details: Human immunodeficiency virus 2, ROD, CCRF-CEM
[8] = Prodrug conversion in pH 7.3 phosphate buffer assessed as ((2S,5R)-5-(5-methyl-2,4-dioxo-3,4-dihydropyrimidin-1(2H)-yl)-2,5-dihydrofuran-2-yl)methyl tri-hydrogen diphosphate formation by measuring half life in presence of pig liver esterase by HPLC analysis; format: ADME
[9] = target: DNA polymerase beta (Homo sapiens) (UniProt P06746); experiment: Substrate activity at human DNA polymerase beta measured after 4 hrs by electrophoresis based primer extension assay
[10] = system: Human immunodeficiency virus 2; experiment: Potency index, ratio of 3'-deoxy-2',3'-dehydrothymidine EC50 to compound EC50 for antiviral activity against HIV-2 ROD infected in wild-type human CEM/0 cells; format: functional
[11] = target: T1, DNA polymerase alpha catalytic subunit (Homo sapiens) (UniProt P09884); experiment: Substrate activity at human DNA polymerase alpha measured after 4 hrs by electrophoresis based primer extension assay
T1 sequence (whole entry): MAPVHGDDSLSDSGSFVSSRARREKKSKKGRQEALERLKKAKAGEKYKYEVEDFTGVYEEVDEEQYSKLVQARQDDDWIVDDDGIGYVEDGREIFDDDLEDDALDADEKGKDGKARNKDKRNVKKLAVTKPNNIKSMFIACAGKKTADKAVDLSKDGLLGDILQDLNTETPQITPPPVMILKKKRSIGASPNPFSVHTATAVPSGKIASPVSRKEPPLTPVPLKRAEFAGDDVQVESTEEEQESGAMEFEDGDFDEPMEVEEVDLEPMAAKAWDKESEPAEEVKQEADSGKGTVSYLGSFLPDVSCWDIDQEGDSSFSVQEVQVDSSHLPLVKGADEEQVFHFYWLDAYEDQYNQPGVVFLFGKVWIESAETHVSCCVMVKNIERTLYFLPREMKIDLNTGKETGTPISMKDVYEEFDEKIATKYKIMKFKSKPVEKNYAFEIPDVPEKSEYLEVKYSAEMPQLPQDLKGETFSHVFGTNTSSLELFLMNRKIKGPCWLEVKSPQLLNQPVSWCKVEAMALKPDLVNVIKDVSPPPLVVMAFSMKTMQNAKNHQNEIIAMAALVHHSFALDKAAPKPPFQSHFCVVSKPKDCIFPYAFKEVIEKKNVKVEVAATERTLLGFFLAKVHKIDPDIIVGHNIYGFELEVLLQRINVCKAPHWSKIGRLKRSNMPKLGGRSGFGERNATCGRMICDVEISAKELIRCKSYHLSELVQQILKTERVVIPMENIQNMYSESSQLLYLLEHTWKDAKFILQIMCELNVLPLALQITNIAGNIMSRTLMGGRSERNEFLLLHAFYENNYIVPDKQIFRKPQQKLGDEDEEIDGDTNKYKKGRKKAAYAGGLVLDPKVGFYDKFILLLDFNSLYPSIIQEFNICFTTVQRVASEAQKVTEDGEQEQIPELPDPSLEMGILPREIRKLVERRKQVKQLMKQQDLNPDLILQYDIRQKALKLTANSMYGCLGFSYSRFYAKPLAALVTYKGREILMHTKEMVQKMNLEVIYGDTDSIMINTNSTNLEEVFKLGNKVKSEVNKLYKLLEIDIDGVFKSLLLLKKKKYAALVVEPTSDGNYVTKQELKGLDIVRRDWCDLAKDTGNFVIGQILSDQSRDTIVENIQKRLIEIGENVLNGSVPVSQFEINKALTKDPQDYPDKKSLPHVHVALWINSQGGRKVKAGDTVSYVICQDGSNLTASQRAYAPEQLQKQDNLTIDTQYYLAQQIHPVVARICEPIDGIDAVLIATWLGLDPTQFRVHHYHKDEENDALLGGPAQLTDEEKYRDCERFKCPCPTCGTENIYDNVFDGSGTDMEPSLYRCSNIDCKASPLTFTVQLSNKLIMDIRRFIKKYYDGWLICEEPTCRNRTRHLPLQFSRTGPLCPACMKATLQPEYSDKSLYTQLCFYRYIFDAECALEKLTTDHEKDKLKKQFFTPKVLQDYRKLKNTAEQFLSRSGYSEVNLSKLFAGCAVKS

[12] = system: Human immunodeficiency virus 2; experiment: Antiviral activity against HIV-2 ROD infected in thymidine kinase-deficient human CEM cells assessed as inhibition of virus-induced cytopathic effect incubated for 4 to 5 days by light microscopic analysis; format: functional, organism-based; details: Human immunodeficiency virus 2, ROD, CCRF-CEM
[13] = Retention time of the compound by HPLC analysis; format: physicochemical
[14] = Prodrug conversion in human CEM/0 cell extract assessed as ((2S,5R)-5-(5-methyl-2,4-dioxo-3,4-dihydropyrimidin-1(2H)-yl)-2,5-dihydrofuran-2-yl)methyl dihydrogen phosphate formation by HPLC analysis; format: ADME; details: ccrf-cem
[15] = Cytotoxicity against human CEM cells assessed as reduction in cell viability incubated for 4 to 5 days by light microscopic analysis; format: toxicity, cell-based; details: CEM cells (CCRF-CEM), time 4-5 day
[16] = system: Human immunodeficiency virus; experiment: Substrate activity at HIV reverse transcriptase measured after 4 hrs by electrophoresis based primer extension assay

## CCCCCCCCCCCCCCCCCCP(=O)(OC)OP(=O)(O)OP(=O)(O)OC[C@@H]1C=C[C@H](n2cc(C)c(=O)[nH]c2=O)O1.N.N (stereo partly specified)
[1]
  selectivity ratio: 83
[2]
  Ratio EC50: 10000
[3]
  half-life: 27.2 days
[4]
  Drug metabolism: Metabolite_Detected
[5]
  Ratio EC50: 4
[6]
  t1/2: > 0.625 days
[7]
  EC50: 0.08 µM
[8]
  t1/2: > 6.25 days
[9]
  Activity: inactive
[10]
  Ratio EC50: 4
[11]
  Activity: inactive
[12]
  EC50: 0.48 µM
[13]
  Retention_time: 15.2 min
[14]
  Drug metabolism: Metabolite_Detected
[15]
  CC50: 40 µM
[16]
  Activity: Active
